From patent US10125129B2 (priority 2016, dated 2018)
Entries after “also recorded” stand apart in the source; their conditions may differ. Read-outs that look alike come from different tables or passages of the source.

Key:
[1] = biological target: T1, μ opioid receptor (MOR) (Homo sapiens, UniProt P35372); test: cell-based; type: cell-based
T1 construct: expressed in transfected cells

[2] = test system: mice; test: Centrally mediated antinociceptive effects (tail-flick), i.p. doses, 10 s cutoff; type: in vivo
[3] = biological target: T2, κ opioid receptor (KOR) (Homo sapiens, UniProt P41145); test: cell-based; type: cell-based
T2 construct: expressed in transfected cells
T2 sequence (P41145 whole entry): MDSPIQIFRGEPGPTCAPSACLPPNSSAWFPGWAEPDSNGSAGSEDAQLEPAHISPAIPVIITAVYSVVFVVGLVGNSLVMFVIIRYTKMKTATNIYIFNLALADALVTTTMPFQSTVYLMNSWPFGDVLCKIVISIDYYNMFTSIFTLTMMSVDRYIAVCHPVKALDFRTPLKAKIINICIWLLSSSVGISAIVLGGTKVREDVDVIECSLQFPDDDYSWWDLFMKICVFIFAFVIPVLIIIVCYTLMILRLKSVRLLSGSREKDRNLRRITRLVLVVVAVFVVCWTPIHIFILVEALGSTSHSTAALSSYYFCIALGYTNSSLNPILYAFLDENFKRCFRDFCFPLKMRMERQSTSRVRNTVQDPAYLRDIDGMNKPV

[4] = test system: Sprague Dawley rats; test: Conditioned place preference assay; details: i.p.
[5] = test system: mice; test: Hot water tail-flick cumulative dose-response (s.c.); type: in vivo; details: Mus musculus, sc, 0.5 h, cumulative s.c. doses 1-30 mg/kg, latency 30 min after each dose
[6] = test system: mice; test: Hot water tail-flick tolerance evaluation, daily dosing; type: in vivo; details: for antinociceptive effects over days of daily administration (tolerance): 7 mg/kg i.p. daily, days 1, 3, 5, 6, mice; for antinociceptive effects on day 6 challenge after daily vehicle: daily vehicle treated mice challenged on day 6
[7] = test system: mice; test: Accelerating rotarod performance assay; details: 10 mg/kg i.p.; compared to kurkinorin and vehicle

T1 sequence (P35372 whole entry): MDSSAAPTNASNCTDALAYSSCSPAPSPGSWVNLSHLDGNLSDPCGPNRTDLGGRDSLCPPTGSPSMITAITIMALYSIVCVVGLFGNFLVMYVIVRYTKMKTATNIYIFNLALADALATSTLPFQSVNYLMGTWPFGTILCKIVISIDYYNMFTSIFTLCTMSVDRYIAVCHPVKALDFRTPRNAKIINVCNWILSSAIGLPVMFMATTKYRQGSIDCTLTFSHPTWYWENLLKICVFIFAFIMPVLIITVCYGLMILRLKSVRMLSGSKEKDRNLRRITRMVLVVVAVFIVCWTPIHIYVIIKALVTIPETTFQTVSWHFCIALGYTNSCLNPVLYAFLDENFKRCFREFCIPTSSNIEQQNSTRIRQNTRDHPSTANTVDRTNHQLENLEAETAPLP

SMILES | conditioned place preference ([4]; 5 mg/kg) | ED50 [5] [mg/kg] | antinociceptive effects over days of daily administration (tolerance) [6] | antinociceptive effects on day 6 challenge after daily vehicle [6] | EC50 ([1]; EC50) [µM] | melting point [°C] | other results
COC(=O)[C@@H]1C[C@H](OC(=O)c2ccccc2)C(=O)[C@H]2[C@@]1(C)CC[C@H]1C(=O)O[C@H](c3ccoc3)C[C@]21C [Compound 2, herkinorin, reference compound] | Neither kurkinorin (5) nor herkinorin (2) were significantly different to vehicle |  |  |  |  |  | Selectivity μ/κ [1]: 4.4; selectivity for the MOR over KOR [1]: 4.4 fold; EC50 ([1]; EC50 ± SEM μ): 0.039 ± 0.004 µM; EC50 ([1]; Series 1 EC50): 0.042 ± 0.004 µM; antinociceptive effects ([2]; 1, 5, and 10 mg/kg, i.p., 10 s cutoff): no significant antinociceptive effects; EC50 ([3]; read-out: EC50 ± SEM κ): 0.17 ± 0.03 µM
COC(=O)[C@@H]1C=C(OC(=O)c2ccccc2)C(=O)[C@H]2[C@@]1(C)CC[C@H]1C(=O)O[C@H](c3ccoc3)C[C@]21C [Compound 5, (2S,4aR,6aR,6aR,10aR,10bR)-Methyl 2-(furan-3-yl)-9-((benzoyl)oxy)-6a,10b-dimethyl-4,10-dioxo-2,4,4a,5,6,6a,7,10,10a,10b-decahydro-1H-benzo[f]isochromene-7-carboxylate] | Neither kurkinorin (5) nor herkinorin (2) were significantly different to vehicle | 9.72 | maintained antinociceptive efficacy from days 1-6 | antinociceptive effects similar to day 1 |  |  | antinociceptive effects ([2]; 5 and 10 mg/kg i.p., similar to morphine at 10 mg/kg): significant antinociceptive effects; EC50 [3]: > 10 µM; activity at the KOR [3]: no activity; conditioned place preference ([4]; 10 mg/kg, listed as Kurkinorin): significant decrease in preference compared to morphine; also recorded: not significantly different form vehicle
CN1CC[C@]23c4c5ccc(O)c4O[C@H]2[C@@H](O)C=C[C@H]3[C@H]1C5 [Morphine, morphine, reference compound] | significant place preference | 9.86 | significant antinociceptive effects on days 1, 3, and 5 but not day 6 | antinociceptive effects similar to day 1 |  |  | conditioned place preference ([4]; 10 mg/kg): significant place preference; motor coordination (rotarod) [7]: significant decrease in motor coordination
COC(=O)[C@@H]1C=C(OC(=O)c2cccc(O)c2)C(=O)[C@H]2[C@@]1(C)CC[C@H]1C(=O)O[C@H](c3ccoc3)C[C@]21C [Table 3 Entry 2, (2S,4aR,6aR,7R,10aR,10bR)-Methyl 2-(furan-3-yl)-9-((3-hydroxybenzoyl)oxy)-6a,10b-dimethyl-4,10-dioxo-2,4,4a,5,6,6a,7,10,10a,10bdecahydro-1H-benzo[f]isochromene-7-carboxylate] |  |  |  |  | 0.0013 ± 0.0003 | 124 to 126 | 
COC(=O)[C@@H]1C=C(OC(=O)c2ccc(O)cc2)C(=O)[C@H]2[C@@]1(C)CC[C@H]1C(=O)O[C@H](c3ccoc3)C[C@]21C [Table 3 Entry 3, (2S,4aR,6aR,7R,10aR,10bR)-Methyl 2-(furan-3-yl)-9-((4-hydroxybenzoyl)oxy)-6a,10b-dimethyl-4,10-dioxo-2,4,4a,5,6,6a,7,10,10a,10b-decahydro-1H-benzo[f]isochromene-7-carboxylate] |  |  |  |  | 0.00083 ± 4e-05 | 136 to 139 | 
